Measured values: patent publication US11155550B2, “Histone deacetylase inhibitors and methods of use thereof” (Reaction Biology Corp., priority 2018, dated 2021)

Target: T1, Complex of human HDAC3 and human NCOR2 (Homo sapiens, UniProt O15379)
T1 construct: full-length with a C-terminal His tag, MW=49.7 kDa; His tag (C); made in house; host or cells: baculovirus expression system
Experiment: Biochemical HDAC enzymatic assay, HDAC3
Conditions: incubation time 10 min
Procedure: Incubation time for HDAC1/2 is 120 min, and 10 min for other HDACs.
Complex of human HDAC3 (GenBank Accession No. NM_003883), full-length with a C-terminal His tag, MW=49.7 kDa, and human NCOR2 (amino acid 395-489) (GenBank Accession No. NM_006312), N-terminal GST tag, MW=37.6 kDa, was co-expressed in a baculovirus expression system.
• I. Compound handling: Testing compounds were dissolved in 100% DMSO to a specific concentration. The serial dilution was conducted by epMotion 5070 in DMSO. • II. HDAC reaction buffer: 50 mM Tris-HCl, pH8.0, 137 mM NaCl, 2.7 mM KCl, and 1 mM MgCl2, Added fresh: 1 mg/ml BSA, 1% DMSO. • III. Substrate: Fluorogenic HDAC General Substrate for HDAC1, 2, 3, 6, 10, 11 ans Sirt1, 2 and 3: Arg-His-Lys-Lys(Ac); HDAC8 only substrate: Arg-His-Lys(Ac)-Lys(Ac); Class2A Substrate (HDAC4, 5, 7 and 9): Acetyl-Lys(trifluoroacetyl)-AMC; Sirt5 substrate: Ac-Lys(succinyl)-AMC. • IV. General Reaction Procedure: (Standard IC50 determination) • a. Delivered 2× enzyme in wells of reaction plate except No Enzyme (No En) control wells. Add buffer in No En wells. • b. Delivered compounds in 100% DMSO into the enzyme mixture by Acoustic technology (Echo550; nanoliter range). Spin down and pre-incubation. • c. Delivered 2× Substrate Mixture (Fluorogenic HDAC Substrate and co-factor (500 μM of Nicotinamide adenine dinucleotide (NAD^+) in all Sirt assay) in all reaction wells to initiate the reaction. Spin and shake. • d. Incubated for 1-2 hr. at 30° C. with seal. • e. Added Developer with Trichostatin A (or TMP269 or NAD^+) to stop the reaction and to generate fluorescent color. • f. Fluorescence was read (excitatory, 360; emission, 460) using the EnVision Multilabel Plate Reader (Perkin Elmer) • g. Endpoint reading was taken for analysis after the development reaches plateau. • V. Data Analysis: The percentages of enzyme activity (relative to DMSO controls) and IC50 values were calculated using the GraphPad Prism 4 program based on a sigmoidal dose-response equation.
The inhibitory activities of HDAC of compounds of the invention were determined using biochemical HDAC assays. Compounds were tested at the indicated doses in the biochemical assays of HDAC1, HDAC2, HDAC3, HDAC4, HDAC5, HDAC6, HDAC7, HDAC8, HDAC9, HDAC10, or HDAC11 enzyme. The curve fit and IC50 values were calculated using the GraphPad Prism 4 program based on a sigmoidal dose-response equation.
• I. Compound handling: Testing compounds were dissolved in 100% DMSO to a specific concentration. The serial dilution was conducted by epMotion 5070 in DMSO. • II. HDAC reaction buffer: 50 mM Tris-HCl, pH8.0, 137 mM NaCl, 2.7 mM KCl, and 1 mM MgCl2, Added fresh: 1 mg/ml BSA, 1% DMSO. • III. Substrate: Fluorogenic HDAC General Substrate for HDAC1, 2, 3, 6, 10, 11 ans Sirt1, 2 and 3: Arg-His-Lys-Lys(Ac); HDAC8 only substrate: Arg-His-Lys(Ac)-Lys(Ac); Class2A Substrate (HDAC4, 5, 7 and 9): Acetyl-Lys(trifluoroacetyl)-AMC; Sirt5 substrate: Ac-Lys(succinyl)-AMC. • IV. General Reaction Procedure: (Standard IC50 determination) • a. Delivered 2× enzyme in wells of reaction plate except No Enzyme (No En) control wells. Add buffer in No En wells. • b. Delivered compounds in 100% DMSO into the enzyme mixture by Acoustic technology (Echo550; nanoliter range). Spin down and pre-incubation. • c. […]

T1 sequence (O15379 whole entry): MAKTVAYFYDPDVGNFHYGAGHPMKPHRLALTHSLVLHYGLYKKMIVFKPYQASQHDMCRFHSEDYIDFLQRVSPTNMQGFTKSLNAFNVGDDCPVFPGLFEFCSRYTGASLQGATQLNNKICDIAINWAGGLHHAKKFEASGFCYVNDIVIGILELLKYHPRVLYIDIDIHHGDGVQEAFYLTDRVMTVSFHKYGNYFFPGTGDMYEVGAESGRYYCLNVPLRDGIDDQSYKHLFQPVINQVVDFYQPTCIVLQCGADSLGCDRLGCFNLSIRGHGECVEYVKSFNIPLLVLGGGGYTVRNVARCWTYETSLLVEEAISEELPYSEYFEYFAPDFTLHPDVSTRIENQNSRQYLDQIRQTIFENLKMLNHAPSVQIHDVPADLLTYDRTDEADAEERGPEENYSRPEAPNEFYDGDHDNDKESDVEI
T1 sequence (Q9Y618 395-489 partner limits assumed): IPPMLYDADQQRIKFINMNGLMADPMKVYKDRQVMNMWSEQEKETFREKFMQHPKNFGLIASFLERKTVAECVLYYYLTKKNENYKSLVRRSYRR

Row | IC50 (Table 2) [µM] | IC50 (Table 1) [µM] | SMILES
1 | 7 | – | O=C(NO)c1ccc(CN2C(=O)c3ccccc3C23CCNCC3)cc1 [Compound Example 10, N-hydroxy-4-((3-oxospiro[isoindoline-1,4′-piperidin]-2-yl)methyl)benzamide]
2 | – | 13 | Nc1ccc(-c2cccs2)cc1NC(=O)c1ccc(CN2C(=O)CCCC23CNC3)cc1 [Example 1, N-(2-amino-5-(thiophen-2-yl)phenyl)-4-((6-oxo-2,5-diazaspiro[3.5]nonan-5-yl)methyl)benzamide]
3 | – | > 20 | Nc1ccc(-c2cccs2)cc1NC(=O)c1ccc(CN2C(=O)CCC23CCNCC3)cc1 [Example 2, N-(2-amino-5-(thiophen-2-yl)phenyl)-4-((2-oxo-1,8-diazaspiro[4.5]decan-1-yl)methyl)benzamide]
4 | – | 1.9 | Nc1cc(F)ccc1NC(=O)c1ccc(CN2C(=O)CCCC23CNC3)cc1 [Example 3, N-(2-amino-4-fluorophenyl)-4-((6-oxo-2,5-diazaspiro[3.5]nonan-5-yl)methyl)benzamide]

Further lines, the molecule ahead of its results:

Row | SMILES | IC50 (Table 2) [µM] | IC50 (Table 1) [µM]
5 | O=C(NO)c1ccc(CN2C(=O)c3ccccc3C23OCCO3)cc1 [Compound Example 8, N-hydroxy-4-((3-oxospiro[isoindoline-1,2′-[1,3]dioxolan]-2-yl)methyl)benzamide] | > 10 | –
6 | O=C(NO)c1ccc(CN2C(=O)C3(CCOC3)c3ccccc32)cc1 (centres unmarked) [Compound Example 9] | 21 | –
7 | CN(C)C(=O)N1CCC2(CC1)c1ccccc1C(=O)N2Cc1ccc(C(=O)NO)cc1 [Compound Example 11, 2-(4-(hydroxycarbamoyl)benzyl)-N,N-dimethyl-3-oxospiro[isoindoline-1,4′-piperidine]-1′-carboxamide] | > 10 | –
8 | O=C(NO)c1ccc(CN2C(=O)c3ccccc3C23CCN(C2CC2)CC3)cc1 [Compound Example 12, 4-((1′-cyclopropyl-3-oxospiro[isoindoline-1,4′-piperidin]-2-yl)methyl)-N-hydroxybenzamide] | 9.26 | –
9 | CN1CCC2(CC1)CN(c1ccc(C(=O)Nc3cc(-c4cccs4)ccc3N)cn1)C(=O)O2 [Example 4, N-(2-amino-5-(thiophen-2-yl)phenyl)-6-(8-methyl-2-oxo-1-oxa-3,8-diazaspiro[4.5]decan-3-yl)nicotinamide] | – | 17.4
10 | Nc1ccc(-c2ccc(F)cc2)cc1NC(=O)c1ccc(N2CC3(CCOCC3)OC2=O)nc1 [Example 5, N-(4-amino-4′-fluoro-[1,1′-biphenyl]-3-yl)-6-(2-oxo-1,8-dioxa-3-azaspiro[4.5]decan-3-yl)nicotinamide] | – | > 20
11 | Nc1ccc(-c2cccs2)cc1NC(=O)c1ccc(N2CC3(CCNCC3)CCC2=O)nc1 [Example 6, N-(2-amino-5-(thiophen-2-yl)phenyl)-6-(3-oxo-2,9-diazaspiro[5.5]undecan-2-yl)nicotinamide] | – | > 20
